Active and inactive are the calls of the source. No cut-off for these calls is given here.
Columns and labels:
[1] = biological target: T1, Polyunsaturated fatty acid 5-lipoxygenase (Homo sapiens) (UniProt P09917); conditions: 3 uM
T1 sequence (whole entry): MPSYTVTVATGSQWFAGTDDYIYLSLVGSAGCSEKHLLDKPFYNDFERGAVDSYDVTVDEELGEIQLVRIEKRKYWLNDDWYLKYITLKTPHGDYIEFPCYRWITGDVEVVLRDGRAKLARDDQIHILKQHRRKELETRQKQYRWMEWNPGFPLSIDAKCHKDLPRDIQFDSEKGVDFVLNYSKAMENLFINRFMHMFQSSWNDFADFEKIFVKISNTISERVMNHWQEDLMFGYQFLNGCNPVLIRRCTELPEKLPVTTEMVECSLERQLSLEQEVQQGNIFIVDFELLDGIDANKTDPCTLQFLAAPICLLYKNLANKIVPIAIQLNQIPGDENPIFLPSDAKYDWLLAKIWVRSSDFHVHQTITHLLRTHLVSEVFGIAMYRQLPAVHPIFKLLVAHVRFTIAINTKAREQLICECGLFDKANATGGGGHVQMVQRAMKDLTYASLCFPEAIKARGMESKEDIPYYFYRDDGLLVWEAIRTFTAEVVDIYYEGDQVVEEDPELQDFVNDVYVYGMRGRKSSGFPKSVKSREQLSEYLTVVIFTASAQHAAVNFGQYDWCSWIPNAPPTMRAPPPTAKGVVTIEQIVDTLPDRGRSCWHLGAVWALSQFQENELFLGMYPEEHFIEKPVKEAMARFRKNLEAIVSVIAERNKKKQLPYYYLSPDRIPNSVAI
Description: Inhibition of human recombinant 5-LOX expressed in Escherichia coli BL21 DE3 assessed as reduction in 5-LO product formation at 3 uM pre-incubated for 10 mins by RP-HPLC method

[2] = biological target: T2, Polyunsaturated fatty acid 5-lipoxygenase (Homo sapiens, UniProt P09917); experiment: (§1) Inhibition of human recombinant 5-LOX expressed in Escherichia coli BL21 DE3 assessed as reduction in 5-LO product formation pre-incubated for 10 mins by RP-HPLC method
T2 sequence (P09917 whole entry): T1 sequence (whole entry)

[3] = biological target: T1, Polyunsaturated fatty acid 5-lipoxygenase (Homo sapiens); experiment: as §1
[4] = biological target: T1, Polyunsaturated fatty acid 5-lipoxygenase (Homo sapiens); experiment: Inhibition of human recombinant 5-LOX expressed in Escherichia coli BL21 DE3 assessed as reduction in 5-LO product formation at 10 uM pre-incubated for 10 mins by RP-HPLC method
[5] = Siderophore activity by chrome azurol S assay
[6] = test system: K562; experiment: Inhibition of cell proliferation of human K562 cells after 72 hrs by cell-titer-blue assay; format: functional, cell-based; conditions: K562, 72 h
[7] = test system: HeLa; experiment: Inhibition of cell proliferation of human HeLa cells after 72 hrs by methylene blue dye based assay; format: functional
[8] = biological target: T3, Prostaglandin E synthase (Homo sapiens) (UniProt O14684); experiment: Inhibition of m-PGES1 in IL-1beta-induced human A549 cell microsomes assessed as reduction in […]PGE2 production up to 100 uM pre-incubated for 15 mins before PGH2 addition by UV detection based reverse-phase high-performance liquid chromatography
T3 sequence (whole entry): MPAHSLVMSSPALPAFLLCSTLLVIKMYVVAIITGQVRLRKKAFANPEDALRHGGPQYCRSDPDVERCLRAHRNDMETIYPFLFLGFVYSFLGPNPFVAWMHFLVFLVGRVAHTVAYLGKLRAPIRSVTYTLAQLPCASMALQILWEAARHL

inhibition [1] | IC50 [2] [µM] | inhibition [3] | inhibition [4] | IC50 [6] [µM] | IC50 [7] [µM] | inhibition [8] | SMILES | Activity [5]
Active | – | – | – | – | – | – | CC(c1cc2ccccc2s1)N(O)C(N)=O (stereo not drawn) | –
– | 1.9 | Dose-dependent effect | Active | 3.9 | 305 | inactive | O=C(NCCCC[C@@H](CO)NC(=O)c1cccc(O)c1O)c1cccc(O)c1O | Active
